The values below come from US20090215758A1, “Use of 2,5-Disubstituted Thiazol-4-One Derivatives in Drugs” (Gruenenthal GmbH, priority 2005, published 2009).

For experiment [1], the target named is T1, vanilloid receptor 1 (VR1/TRPV1) of the rat species (Rattus norvegicus, UniProt O35433).
T1 construct: The spinal column is removed from beheaded rats; from tissue; host or cells: primary cells from rat dorsal root ganglia (DRGs)
Briefly: Functional study on vanilloid receptor 1, FLIPR Ca2+ assay in rat dorsal root ganglia cells. It is filed as cell-based. The conditions noted are these: for inhibition at 10 µM / activation at 10 µM: test compound 10 μM; for inhibition at 10 µM: 5 min incubation, then 100 nM capsaicin, relative to maximum inhibition with 10 μM capsaicin, read-out: VR1 (rat) (% inhibition compared to 10 μM CP); for activation at 10 µM: Ca2+ signal relative to 10 μM capsaicin (CP), read-out: VR1 (rat) (% stimulation compared to 10 μM CP); for pEC50: unit inferred. The protocol:
The agonistic or antagonistic action of the substances to be studied on the vanilloid receptor 1 (VR1/TRPV1) of the rat species can be determined with the following assay. In this assay, the Ca^2+ current through the receptor channel is quantified with the aid of a Ca^2+-sensitive dye (Fluo-4 type, Molecular Probes Europe BV, Leiden the Netherlands) in a fluorescent imaging plate reader (FLIPR, Molecular Devices, Sunnyvale, USA).
Complete medium: 50 ml HAMS F12 Nutrient Mixture (Gibco Invitrogen GmbH, Karlsruhe, Germany) with 10% by volume of FCS (fetal calf serum, Gibco Invitrogen GmbH, Karlsruhe, Germany, heat-inactivated);
2 mM L-glutamine (Sigma, Munich, Germany);
1% by weight of AA solution (antibiotic/antimycotic solution, PAA, Pasching, Austria) and 25 ng/ml of NGF medium (2.5 S, Gibco Invitrogen GmbH, Karlsruhe, Germany)
Cell culture plate: poly-D-lysine-coated, black 96-hole plates with a clear bottom (96 well black/clear plate, BD Biosciences, Heidelberg, Germany) are additionally coated with laminin (Gibco Invitrogen GmbH, Karlsruhe, Germany) by diluting laminin to a concentration of 100 μg/ml with PBS (Ca—Mg-free PBS, Gibco Invitrogen GmbH, Karlsruhe, Germany). Aliquots having a concentration of 100 μg/ml of laminin are withdrawn and stored at −20° C. The aliquots are diluted with PBS in a ratio of 1:10 to 10 μg/ml of laminin and in each case 50 μl of the solution are pipetted into a well of the cell culture plate. The cell culture plates are incubated at 37° C. for at least two hours, the supernatant solution is removed by suction and the wells are each washed twice with PBS. The coated cell culture plates are stored with supernatant PBS which is not removed until directly before the application of the cells.
The spinal column is removed from beheaded rats and placed directly into cold HBSS buffer (Hank's buffered saline solution, Gibco Invitrogen GmbH, Karlsruhe, Germany), i.e. placed in an ice bath, which has been admixed with 1% by volume of an AA solution (antibiotic/antimycotic solution, PAA, Pasching, Austria). The spinal column is severed longitudinally and removed from the spinal canal together with fasciae. Subsequently, the dorsal root ganglia (DRGs) are removed and in turn stored in cold HBSS buffer admixed with 1% by volume of an AA solution. The DRGs freed completely of blood residues and spinal nerves are in each case transferred to 500 μl of cold type 2 collagenase (PAA, Pasching, Austria) and incubated at 37° C. for 35 minutes. […] After complete incubation, the enzyme solution is cautiously pipetted off and the remaining DRGs are each suspended with 500 μl of complete medium.
The DRGs are each suspended repeatedly, drawn through cannulas No. 1, No. 12 and No. 16 by means of a syringe and transferred to 50 ml Falcon tubes which are made up to 15 ml with complete medium. The contents of each Falcon tube are in each case filtered through a 70 μm Falcon filter insert and centrifuged at 1200 revolutions and room temperature for 10 minutes. The resulting pellet is in each case taken up in 250 μl of complete medium and the cell count is determined.
The number of cells in the suspension is adjusted to 3 times 10^5 per ml and in each case 150 μl of this suspension are added to one well of the cell culture plates coated as described above.
Subsequently, the cells are laden with 2 μM Fluo-4 and 0.01% by volume of Pluronic F127 (Molecular Probes Europe BV, Leiden, the Netherlands) in HBSS buffer (Hank's buffered saline solution, Gibco Invitrogen GmbH, Karlsruhe, Germany) at 37° C. for 30 min, washed 3× with HBSS buffer and, after a further incubation of 15 minutes, used in the FLIPR assay at room temperature for Ca^2+ measurement. The Ca^2+-dependent fluorescence is measured before and after addition of substances (λex=488 nm, λem=540 nm). The quantification is effected by the measurement of the highest fluorescence intensity (FC, fluorescence counts) over the time.

A further experiment has as its target T2, VR1 (human) (Homo sapiens, UniProt Q8NER1).
T2 construct: expressed in transfected cells; host or cells: CHO K1 cells (ECACC), stably transfected
The experiment in a line: Functional study on vanilloid receptor (VR1), FLIPR Ca2+ assay in CHO K1 cells stably transfected with the VR1 gene. It is filed as cell-based. To be noted: for inhibition at 10 µM / activation at 10 µM: CHO-K1, test compound 10 μM; for inhibition at 10 µM: 5 min incubation, then 100 nM capsaicin, compared to 10 μM CP; for activation at 10 µM: Ca2+ signal relative to 10 μM capsaicin (CP), read-out: VR1 (human) (% stimulation compared to 10 μM CP); for pEC50: unit inferred. The source says:
The agonistic or antagonistic action of the substances to be tested on vanilloid receptor (VR1) can also be determined with the assay which follows. In this assay, the Ca^2+ current through the channel is quantified with the aid of a Ca^2+-sensitive dye (Fluo-4 type, Molecular Probes, Europe BV, Leiden, the Netherlands) in a fluorescent imaging plate reader (FLIPR, Molecular Devices, Sunnyvale, USA).
Chinese hamster ovary cells (CHO K1 cells, European Collection of Cell Cultures (ECACC) Great Britain) are transfected stably with the VR1 gene. For functional studies, these cells are plated out onto poly-D-lysine-coated black 96-well plates with a clear bottom (BD Biosciences, Heidelberg, Germany) in a density of 25 000 cells/well. The cells are incubated overnight at 37° C. and 5% CO2 in a culture medium (Ham's Nutrient Mixture F12, 10% by volume of FCS (fetal calf serum), 18 μg/ml of L-proline). The next day, the cells are incubated with Fluo-4 (Fluo-4 2 μM, Pluronic F127 0.01% by volume, Molecular Probes in HBSS (Hank's buffered saline solution), Gibco Invitrogen GmbH, Karlsruhe, Germany) at 37° C. for 30 minutes. Subsequently, the plates are washed 3 times with HBSS buffer and, after a further incubation of 15 minutes at room temperature, used for Ca^2+ measurement in FLIPR. The Ca^2+-dependent fluorescence is measured before and after addition of the substances to be studied (wavelength λex=488 nm, λem=540 nm). The quantification is effected by measuring the highest fluorescence intensity (FC, fluorescence counts) over the time.
The FLIPR protocol consists of 2 substance additions. First, the substances to be tested (10 μM) are pipetted onto the cells and the Ca current is compared with the control (capsaicin 10 μM) (% activation based on the Ca^2+ signal after addition of 10 μM capsaicin). After incubation for 5 minutes, 100 nM capsaicin is applied and the current of Ca^2+ is likewise determined.

pEC50: −log10 of the molar value. Some results are limits rather than exact numbers.

T1 sequence (O35433 whole entry): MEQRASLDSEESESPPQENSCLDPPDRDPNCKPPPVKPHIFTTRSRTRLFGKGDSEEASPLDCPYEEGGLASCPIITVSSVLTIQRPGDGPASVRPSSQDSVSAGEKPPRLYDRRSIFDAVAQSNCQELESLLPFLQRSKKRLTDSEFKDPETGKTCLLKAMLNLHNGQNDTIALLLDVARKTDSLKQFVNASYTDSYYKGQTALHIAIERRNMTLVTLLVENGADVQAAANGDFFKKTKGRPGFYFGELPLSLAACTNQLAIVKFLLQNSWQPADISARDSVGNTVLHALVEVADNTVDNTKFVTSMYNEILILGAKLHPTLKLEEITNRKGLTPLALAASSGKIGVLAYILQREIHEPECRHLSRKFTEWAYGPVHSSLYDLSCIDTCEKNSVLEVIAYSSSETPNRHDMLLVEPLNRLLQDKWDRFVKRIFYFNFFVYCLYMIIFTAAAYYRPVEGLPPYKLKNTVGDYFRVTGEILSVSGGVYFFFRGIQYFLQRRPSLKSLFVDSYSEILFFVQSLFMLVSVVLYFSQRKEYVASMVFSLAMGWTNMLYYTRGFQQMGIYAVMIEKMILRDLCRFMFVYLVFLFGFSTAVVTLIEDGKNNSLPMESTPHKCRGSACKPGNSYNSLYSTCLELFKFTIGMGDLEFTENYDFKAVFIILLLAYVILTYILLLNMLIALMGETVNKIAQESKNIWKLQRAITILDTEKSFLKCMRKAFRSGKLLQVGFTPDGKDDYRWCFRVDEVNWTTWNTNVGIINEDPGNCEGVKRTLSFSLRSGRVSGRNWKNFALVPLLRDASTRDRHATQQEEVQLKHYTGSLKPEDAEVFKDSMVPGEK
T2 sequence (Q8NER1 whole entry): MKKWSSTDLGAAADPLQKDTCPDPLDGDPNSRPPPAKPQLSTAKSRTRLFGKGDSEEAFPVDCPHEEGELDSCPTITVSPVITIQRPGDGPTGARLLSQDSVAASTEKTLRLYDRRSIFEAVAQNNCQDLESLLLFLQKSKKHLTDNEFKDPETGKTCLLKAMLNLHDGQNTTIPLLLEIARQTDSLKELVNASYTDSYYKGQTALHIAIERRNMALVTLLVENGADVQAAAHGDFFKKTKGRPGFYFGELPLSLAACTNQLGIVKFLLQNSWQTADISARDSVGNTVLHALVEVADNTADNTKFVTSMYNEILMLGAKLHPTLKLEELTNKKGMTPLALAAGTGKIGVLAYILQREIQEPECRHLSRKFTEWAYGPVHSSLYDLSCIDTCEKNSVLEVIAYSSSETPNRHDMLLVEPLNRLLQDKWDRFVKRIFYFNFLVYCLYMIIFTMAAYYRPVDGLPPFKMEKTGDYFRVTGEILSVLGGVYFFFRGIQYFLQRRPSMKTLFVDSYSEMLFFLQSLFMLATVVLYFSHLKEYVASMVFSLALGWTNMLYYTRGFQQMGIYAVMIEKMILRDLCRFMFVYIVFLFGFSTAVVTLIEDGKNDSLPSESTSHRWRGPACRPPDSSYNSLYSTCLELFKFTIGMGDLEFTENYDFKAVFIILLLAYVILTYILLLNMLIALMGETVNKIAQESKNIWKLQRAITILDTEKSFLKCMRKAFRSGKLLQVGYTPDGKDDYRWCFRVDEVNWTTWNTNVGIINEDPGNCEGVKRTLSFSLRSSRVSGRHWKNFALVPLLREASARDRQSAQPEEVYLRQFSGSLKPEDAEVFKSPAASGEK

Take `COc1cc(C=C2SC(N3CCSCC3)=NC2=O)ccc1O` [Example 39, 5-(4-hydroxy-3-methoxybenzylidene)-2-thiomorpholin-4-ylthiazol-4-one]: the inhibition at 10 µM in experiment [1] is 51%; at VR1 (human), 23.7%. The activation at 10 µM in experiment [1] was found to be 31.2%; at VR1 (human), 18.9%.
As to `O=C1N=C(N2CCSCC2)SC1=Cc1cccc2ccccc12` [Example 41, 5-naphthalen-1-ylmethylene-2-thiomorpholin-4-ylthiazol-4-one], in experiment [1], the inhibition at 10 µM is 90.9%, the activation at 10 µM stood at 87% and the pEC50 is 5.24. Moreover, at VR1 (human), testing at 10 µM gave an inhibition of 22.6%, the activation at 10 µM was 0.47% and the pEC50 was 4.98.
As to `O=C1N=C(N2CCSCC2)SC1=Cc1ccccc1` [Example 42, 5-benzylidene-2-thiomorpholin-4-ylthiazol-4-one], the figures for the inhibition at 10 µM (in experiment [1]; against VR1 (human)) were 93.1% and 50.2%, respectively. The activation at 10 µM in experiment [1] turned out to be 98.3%; at VR1 (human), 49.7%.
For `CC(=CC=C1SC(N2CCOCC2)=NC1=O)c1cccc(C(F)(F)F)c1` [Example 44, 2-morpholin-4-yl-5-[3-(3-trifluoromethylphenyl)but-2-enylidene]thiazol-4-one] the same measures were 64.3%, 34.3%, 39.6% and 10.9%.
Taken in the same sequence, the figures for `O=C1N=C(N2CCN(c3ncccc3Cl)CC2)SC1=Cc1ccc2ccccc2c1` [Example 49, 2-[4-(3-chloropyridin-2-yl)piperazin-1-yl]-5-naphthalen-2-ylmethylenethiazol-4-one] were 78.5%, 34.1%, 0.4% and 0%.
Taken in the same sequence, the figures for `O=C1N=C(N2CCOCC2)SC1=CC(=Cc1ccccc1)c1ccccc1` [Example 50, 5-(2,3-diphenylallylidene)-2-morpholin-4-ylthiazol-4-one] were 21.3%, 51.6%, 7.19% and 0%.
On to `O=C1N=C(N2CCSCC2)SC1=Cc1ccc2ccccc2c1` [Example 54, 5-naphthalen-2-ylmethylene-2-thiomorpholin-4-ylthiazol-4-one], for which, in experiment [1], the inhibition at 10 µM came to 87.9%, the activation at 10 µM came to 96.1% and the pEC50 is 5.60. On VR1 (human), testing at 10 µM gave an inhibition of 81.7%, the activation at 10 µM is 79.6% and the pEC50 was less than 4.60.
For `Cc1ccc(C=C2SC(N3CCN(Cc4ccccc4)CC3)=NC2=O)cc1` [Example 63, 2-(4-benzylpiperazin-1-yl)-5-(4-methylbenzylidene)thiazol-4-one], in experiment [1], the inhibition at 10 µM came out at 70.9% and the activation at 10 µM is 0.34%. Moreover, on VR1 (human), the inhibition at 10 µM is 52.8% and the activation at 10 µM came to 0%.
Taken in the same sequence, the figures for `COc1cc(C=C2SC(N3CCN(c4ccccc4)CC3)=NC2=O)ccc1O` [Example 68, 5-(4-hydroxy-3-methoxybenzylidene)-2-(4-phenylpiperazin-1-yl)thiazol-4-one] were 11.6%, 73.4%, 39.3% and 54.3%.
Consider `O=C1N=C(N2CCSCC2)SC1=CC(Cl)=Cc1ccccc1` [Example 85, 5-(2-chloro-3-phenylallylidene)-2-thiomorpholin-4-ylthiazol-4-one], for which, in experiment [1], the inhibition at 10 µM is 77.1% and the activation at 10 µM was 54.9%. In addition, on VR1 (human), at 10 µM the inhibition was 97.5% and the activation at 10 µM was determined as 82.5%.
